Test results from patent publication US10222368B2 (priority 2012, dated 2019).

Tests used:
[1] = molecular target: T1, α7nAChR-FLNA complex (Homo sapiens, UniProt P21333); experiment: Lymphocyte co-immunoprecipitation / Western blot; type: cell-based
T1 construct: To determine the levels of FLNA-α7nAChR, FLNA-TLR4 and α7nAChR-Aβ42 complexes in the lymphocytes; endogenous in cells; host or cells: lymphocytes from venous blood of AD patients and control subjects (ex vivo)
Procedure: To prepare lymphocytes, 7 ml of venous blood was collected into an EDTA-containing collecting tube or S-monovette (Sarstedt, Newton, N.C.). […] The lymphocytes were washed twice by mixing with 6 ml oxygenated Kreb's-Ringer followed by centrifugation at 250×g for 10 minutes and re-suspension. […] To store lymphocytes, the lymphocyte pellet was resuspended in 250 μl ice-cold oxygenated Kreb's-Ringer containing 10% glycerol, and stored at −20° C. for 1 hour before storage at −80° C.
In the case that frozen lymphocyte samples were used, a lymphocyte suspension was gradually thawed by storing at −20° C. for 1 hour after removal from −80° C. and then at thawed at 4° C.
The incubation was terminated by adding 1 ml ice-cold Ca^2+-free Kreb's-Ringer containing 0.5 mM EGTA/0.1 mM EDTA, protease and phosphatase inhibitors followed by centrifugation. The resultant lymphocyte pellet was homogenized in 0.25 ml ice-cold immunoprecipitation buffer. […]
The membranes were then washed 3 times (1 minutes each) with 0.1% Tween-20 containing PBS and then once with distilled water for 1 minutes. The immunoreactivity was detected by a chemiluminutesescent method (Supersignal chemiluminutesescent reagents−Pierce/Thermo), and visualized by immediate exposure to X-ray film for 10-30 seconds (depending on the intensity of the signal). Specific protein bands were quantified by densitometric scanning (GS-800 calibrated densitometer, Bio-Rad Laboratories).
The membranes were then washed 3 times (1 minutes each) with 0.1% Tween®-20-containing PBS and then once with distilled water for 1 minute. The immunoreactivity was detected by a chemiluminutesescent method (Supersignal chemiluminutesescent reagents—Pierce/Thermo), and visualized by immediate exposure to X-ray film for 10-30 seconds (depending on the intensity of the signal). Specific protein bands were quantified by densitometric scanning (GS-800 calibrated densitometer, Bio-Rad Laboratories). The data are expressed as the ratio of α7nAChR/FLNA, TLR4/FLNA or α7nAChR/β-Actin optical intensities (in arbitrary units).

[2] = molecular target: T2, TLR4-FLNA complex (Homo sapiens, UniProt P21333); experiment: 96-well FITC-solid phase method in lymphocytes; type: cell-based; conditions: 1 nM C0105, 30 min; AD lymphocytes or Aβ42-treated control lymphocytes
T2 construct: To determine the levels of FLNA-α7nAChR, FLNA-TLR4 and α7nAChR-Aβ42 complexes in the lymphocytes; endogenous in cells; host or cells: lymphocytes from venous blood of AD patients and control subjects (ex vivo)
Source text: (§1) FIG. 2 illustrates the utility of a 96-well FITC-solid phase assay method to assess, in lymphocytes from AD patients and control subjects, levels of 1) the FLNA-α7nAChR association 2) the FLNA-TLR4 association and 3) α7nAChR-Aβ42 complexes. The top two panels show α7nAChR and TLR4 levels detected using respective FITC-anti-α7nAChR or FITC-anti-TLR4 antibodies after capturing FLNA coupled to α7nAChR and TLR4, respectively, with an anti-FLNA antibody coated on the microtiter solid phase plate.
(§2) To prepare lymphocytes, 7 ml of venous blood was collected into an EDTA-containing collecting tube or S-monovette (Sarstedt). Collected blood (6 ml) was layered onto 6 ml of Histopaque®-1077 (Sigma) at 25° C., and the anticoagulated blood was centrifuged at 400×g for 30 minutes (25° C.) to yield plasma (top layer) and lymphocytes (opaque interface). The lymphocytes were washed twice by mixing with 6 ml of oxygenated K-R followed by centrifugation at 250×g for 10 minutes and resuspension. […]
(§3) After two 1-minute washes with 50 mM Tris HCl (pH 7.4), each well was incubated in 0.5 μg/well FITC-conjugated anti-mouse IgG (human and mouse absorbed) for 1 hour at 25° C. Plates were washed twice with 200 μl ice-cold Tris HCl, pH 7.4 and the residual FITC-Aβ42 signals were determined by multimode plate reader, DTX880 (Beckman).

[3] = molecular target: T1, α7nAChR-FLNA complex; experiment: 96-well FITC-solid phase method in lymphocytes; type: cell-based; conditions: 1 nM C0105, 30 min; AD lymphocytes or Aβ42-treated control lymphocytes
Source text: as §1, §2, §3

[4] = system: α7nAChR-Aβ42 complex; experiment: 96-well FITC-solid phase method in lymphocytes; type: cell-based, human; conditions: 1 nM C0105, 30 min; AD lymphocytes or Aβ42-treated control lymphocytes
Source text: as §1, §2
as §3, with “(Beckman). […]” for “(Beckman).”

[5] = molecular target: FLNA association with TLR4 (Homo sapiens, UniProt P21333); experiment: Postmortem human brain tissue slices, anti-FLNA immunoprecipitation / Western blot; type: cell-based; conditions: 0.1 and 1 nM C0105, 1 hour; postmortem AD and Aβ42-treated control FCX tissue
Procedure: (§4) Blots were analyzed by densitometric quantitation (FIG. 3B and FIG. 3D). […] Percent inhibition is depicted in FIG. 3C and FIG. 3E. n=11.
(§5) Postmortem brain tissues FCX from patients with clinically diagnosed sporadic AD and control tissues from normal, age-matched, neurologically normal individuals were obtained from the Harvard Brain Tissue Resource Center (HBTRC, Belmont, Mass.) and UCLA Brain Tissue Resource Center (UBTRC, Los Angeles, Calif.). Both HBTRC and UBTRC are supported in part by the National Institute of Health. The postmortem time intervals for collecting these brains were ≤13 hour (mean postmortem intervals for collection of AD and control brain samples were 6.0±0.9 hour and 5.8±0.8 hour, respectively). Diagnostic neuropathological examination was conducted on fixed sections stained with hematoxylin and eosin stain and with modified Bielschowsky silver staining [Yamamoto et al., Neuropathol Appl Neurobiol 12, 3-9 (1986)] to establish any disease diagnosis according to defined criteria [Hyman et al., J Neuropathol Exp Neurol 56, 1095-1097 (1997)] and brain tissue from age-matched controls was similarly screened.
(§6) Following centrifugation and two additional washes with 1 ml ice-cold K-R, brain slices were suspended in 1 ml K-R.
(§7) Incubation continued for 1 hour in the dark. […]

[6] = molecular target: FLNA association with α7nAChR (Homo sapiens, UniProt P21333); experiment: as above; type: cell-based; conditions: 0.1 and 1 nM C0105, 1 hour; postmortem AD and Aβ42-treated control FCX tissue
Procedure: as §4, §5, §6, §7

[7] = molecular target: T3, TLR4/FLNA (Rattus norvegicus, UniProt A0A8I5ZV49); experiment: Rat frontal cortical synaptosomes treated with Aβ42, anti-FLNA immunoprecipitation / Western blot; type: cell-based; conditions: 1 or 10 nM compound, simultaneously or 10 min prior to 0.1 μM Aβ42; Dunnett's test
T3 construct: from tissue; host or cells: rat frontal cortical synaptosomes
Procedure: The complexes in the solubilized synaptosomes, and α7nAChR, TLR4 and FLNA levels in the anti-FLNA immunoprecipitates were determined by Western blotting (FIG. 15A) in which numerals outside of and to the left of the blots are as discussed before. Amounts present in the blots were quantified by densitometry (FIG. 15B). […] Structural formulas of the compounds used in this and the other figures are provided hereinafter.

T1 sequence (P21333 2-2647 limits assumed, one chain of several): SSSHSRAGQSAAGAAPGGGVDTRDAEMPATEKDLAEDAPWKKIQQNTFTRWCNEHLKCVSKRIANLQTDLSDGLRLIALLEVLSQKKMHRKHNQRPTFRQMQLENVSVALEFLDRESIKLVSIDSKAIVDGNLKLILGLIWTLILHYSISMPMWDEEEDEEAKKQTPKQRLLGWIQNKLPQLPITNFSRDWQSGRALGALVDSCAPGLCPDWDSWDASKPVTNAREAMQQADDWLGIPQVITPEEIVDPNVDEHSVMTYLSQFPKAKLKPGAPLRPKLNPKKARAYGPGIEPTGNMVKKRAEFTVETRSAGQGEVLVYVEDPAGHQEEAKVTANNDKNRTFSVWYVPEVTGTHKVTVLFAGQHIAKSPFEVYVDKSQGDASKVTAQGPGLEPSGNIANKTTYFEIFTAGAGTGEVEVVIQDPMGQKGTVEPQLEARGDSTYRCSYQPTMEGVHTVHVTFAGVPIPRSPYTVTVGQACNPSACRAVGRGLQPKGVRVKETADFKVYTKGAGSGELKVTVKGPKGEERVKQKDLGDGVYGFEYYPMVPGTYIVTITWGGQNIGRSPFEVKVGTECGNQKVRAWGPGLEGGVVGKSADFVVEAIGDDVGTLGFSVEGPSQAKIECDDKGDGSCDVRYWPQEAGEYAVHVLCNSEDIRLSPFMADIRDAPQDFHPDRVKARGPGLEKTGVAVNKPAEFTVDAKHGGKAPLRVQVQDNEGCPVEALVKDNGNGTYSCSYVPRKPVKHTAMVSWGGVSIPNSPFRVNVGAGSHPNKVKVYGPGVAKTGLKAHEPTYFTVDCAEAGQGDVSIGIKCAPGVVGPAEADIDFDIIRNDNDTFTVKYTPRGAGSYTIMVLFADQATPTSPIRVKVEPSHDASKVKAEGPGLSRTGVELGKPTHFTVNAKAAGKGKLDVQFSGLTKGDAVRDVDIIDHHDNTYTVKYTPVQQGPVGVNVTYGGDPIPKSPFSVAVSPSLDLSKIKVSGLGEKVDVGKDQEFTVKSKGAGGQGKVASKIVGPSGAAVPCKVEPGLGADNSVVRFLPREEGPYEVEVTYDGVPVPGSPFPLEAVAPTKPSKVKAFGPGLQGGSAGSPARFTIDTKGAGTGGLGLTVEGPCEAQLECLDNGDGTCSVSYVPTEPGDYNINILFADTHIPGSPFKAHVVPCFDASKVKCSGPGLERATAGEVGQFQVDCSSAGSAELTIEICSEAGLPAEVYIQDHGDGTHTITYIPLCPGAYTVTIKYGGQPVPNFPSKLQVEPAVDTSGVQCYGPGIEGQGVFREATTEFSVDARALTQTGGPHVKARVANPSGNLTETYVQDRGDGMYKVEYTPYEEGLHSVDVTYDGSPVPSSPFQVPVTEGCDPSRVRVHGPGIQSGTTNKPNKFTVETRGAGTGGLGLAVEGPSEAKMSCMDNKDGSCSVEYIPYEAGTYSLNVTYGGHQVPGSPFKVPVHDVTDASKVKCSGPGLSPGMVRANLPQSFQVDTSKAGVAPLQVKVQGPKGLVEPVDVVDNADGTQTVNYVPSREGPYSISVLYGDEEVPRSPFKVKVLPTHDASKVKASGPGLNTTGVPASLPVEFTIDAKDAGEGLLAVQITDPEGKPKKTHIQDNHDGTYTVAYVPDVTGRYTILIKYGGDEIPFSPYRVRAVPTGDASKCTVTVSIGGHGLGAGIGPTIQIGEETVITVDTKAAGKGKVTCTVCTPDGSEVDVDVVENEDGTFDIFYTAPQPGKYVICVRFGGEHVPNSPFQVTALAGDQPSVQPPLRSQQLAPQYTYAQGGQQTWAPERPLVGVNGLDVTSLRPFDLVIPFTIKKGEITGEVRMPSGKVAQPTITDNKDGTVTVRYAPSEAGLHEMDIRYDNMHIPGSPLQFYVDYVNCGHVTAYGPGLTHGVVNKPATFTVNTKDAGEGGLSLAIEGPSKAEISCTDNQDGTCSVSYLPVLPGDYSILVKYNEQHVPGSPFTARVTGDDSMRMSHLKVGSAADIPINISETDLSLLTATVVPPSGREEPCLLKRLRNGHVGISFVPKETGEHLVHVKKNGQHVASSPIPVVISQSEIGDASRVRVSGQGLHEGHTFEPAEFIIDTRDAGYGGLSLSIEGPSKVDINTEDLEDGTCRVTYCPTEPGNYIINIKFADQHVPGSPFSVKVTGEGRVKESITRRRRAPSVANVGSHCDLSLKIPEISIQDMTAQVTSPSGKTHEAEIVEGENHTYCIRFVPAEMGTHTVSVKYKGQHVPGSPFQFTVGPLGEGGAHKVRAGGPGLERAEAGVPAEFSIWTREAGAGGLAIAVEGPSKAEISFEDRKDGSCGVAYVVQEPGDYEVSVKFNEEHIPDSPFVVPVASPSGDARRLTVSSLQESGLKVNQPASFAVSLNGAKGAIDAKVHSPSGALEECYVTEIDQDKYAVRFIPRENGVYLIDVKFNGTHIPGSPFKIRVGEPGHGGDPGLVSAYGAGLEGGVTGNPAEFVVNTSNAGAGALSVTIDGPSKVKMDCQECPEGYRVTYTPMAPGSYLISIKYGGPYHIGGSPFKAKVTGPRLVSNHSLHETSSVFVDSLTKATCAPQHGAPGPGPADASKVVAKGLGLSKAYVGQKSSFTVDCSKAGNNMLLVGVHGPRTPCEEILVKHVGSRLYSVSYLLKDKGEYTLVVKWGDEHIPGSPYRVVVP
Chain of FLNA association with TLR4 (P21333 2-2647 limits assumed): as the sequence (P21333 2-2647 limits assumed, one chain of several) above
Chain of FLNA association with α7nAChR (P21333 2-2647 limits assumed): as the sequence (P21333 2-2647 limits assumed, one chain of several) above
T2 sequence (P21333 2-2647 limits assumed, one chain of several): as above

Structure (SMILES): CN1CCC2(CC1)NCC(=O)N2Cc1ccccc1 [Compound C0105]
- inhibition at 0.001 µM ([1]; 1 nM C0105, 30 min, lymphocytes of 20 AD subjects, read-out: Reduction of α7nAChR/FLNA complex level (% inhibition)): ~50%
- Effect on amount of α7nAChR-FLNA complexes (in words), pilot study ([1]; 1 nM C0105, Aβ42-treated control and untreated AD lymphocytes): decreases the amount of α7nAChR-FLNA complexes
- Effect on α7nAChR/FLNA complex level (in words) ([1]; 1 nM C0105, lymphocytes of 10 YCI controls): no discernible effect
- Effect on FLNA-TLR4 association (in words) [2]: reduce all three associations
- Effect on FLNA-α7nAChR association (in words) [3]: reduce all three associations
- Effect on α7nAChR-Aβ42 complexes (in words) [4]: reduce all three associations
- Effect on FLNA association with TLR4 (in words) [5]: reduced these associations
- Effect on FLNA association with α7nAChR (in words) [6]: reduced these associations
- TLR4/FLNA ratio versus Aβ42 alone (in words) [7]: statistically different from Aβ42 alone
